Assay results published in ChEMBL document CHEMBL5120776, “Asymmetric Total Synthesis of Griseofamine B and Its Three Stereoisomers” (2022).

Tests used:
Assay type in all cases: functional
[1] = system: Staphylococcus epidermidis; assay: Antibacterial activity against Staphylococcus epidermidis ATCC 12228 assessed as inhibition of bacterial growth incubated for 18 hrs by two-fold dilution assay
Staphylococcus aureus [2] = assay: Antibacterial activity against Staphylococcus aureus […] assessed as inhibition of bacterial growth incubated for 18 hrs by two-fold dilution assay
Staphylococcus aureus [3] = assay: Antibacterial activity against Staphylococcus aureus ATCC 29213 assessed as inhibition of bacterial growth incubated for 18 hrs by two-fold dilution assay
Enterococcus faecium [4] = assay: Antibacterial activity against Enterococcus faecium clinical isolate 16-5 assessed as inhibition of bacterial growth incubated for 18 hrs by two-fold dilution assay
Enterococcus faecalis [5] = assay: Antibacterial activity against Enterococcus faecalis ATCC 29212 assessed as inhibition of bacterial growth incubated for 18 hrs by two-fold dilution assay
[6] = system: Staphylococcus epidermidis; assay: Antibacterial activity against methicillin-resistant Staphylococcus epidermidis clinical isolate 16-5 assessed as inhibition of bacterial growth incubated for 18 hrs by two-fold dilution assay
Staphylococcus aureus [7] = assay: Antibacterial activity against methicillin-resistant Staphylococcus aureus […] assessed as inhibition of bacterial growth incubated for 18 hrs by two-fold dilution assay
Enterococcus faecalis [8] = assay: Antibacterial activity against vancomycin-resistant Enterococcus faecalis ATCC 51299 assessed as inhibition of bacterial growth incubated for 18 hrs by two-fold dilution assay
Enterococcus faecium [9] = assay: Antibacterial activity against vancomycin-resistant Enterococcus faecium ATCC 700221 assessed as inhibition of bacterial growth incubated for 18 hrs by two-fold dilution assay
Escherichia coli = assay: Antibacterial activity against Escherichia coli ATCC 25922 assessed as inhibition of bacterial growth incubated for 18 hrs by two-fold dilution assay
Staphylococcus aureus [10] = assay: Antibacterial activity against methicillin-resistant Staphylococcus aureus ATCC 33591 assessed as inhibition of bacterial growth incubated for 18 hrs by two-fold dilution assay

Measured: MIC

CC(C)=C[C@H]1c2cccc3[nH]cc(c23)C[C@H]2C(=O)/C(=C(\C)O)C(=O)N21
≥ 64 µg/mL: [1] | Staphylococcus aureus [2] | Staphylococcus aureus [3] | Enterococcus faecium [4] | Enterococcus faecalis [5] | [6] | Staphylococcus aureus [7] | Enterococcus faecalis [8] | Enterococcus faecium [9] | Escherichia coli | Staphylococcus aureus [10]

CC(C)=C[C@@H]1c2cccc3[nH]cc(c23)C[C@@H]2C(=O)/C(=C(\C)O)C(=O)N21
≥ 64 µg/mL: [1] | Staphylococcus aureus [2] | Staphylococcus aureus [3] | Enterococcus faecium [4] | Enterococcus faecalis [5] | [6] | Staphylococcus aureus [7] | Enterococcus faecalis [8] | Enterococcus faecium [9] | Escherichia coli | Staphylococcus aureus [10]

CC(C)=C[C@H]1c2cccc3[nH]cc(c23)C[C@@H]2C(=O)/C(=C(\C)O)C(=O)N21
≥ 64 µg/mL: [1] | Staphylococcus aureus [2] | Staphylococcus aureus [3] | Enterococcus faecium [4] | Enterococcus faecalis [5] | [6] | Staphylococcus aureus [7] | Enterococcus faecalis [8] | Enterococcus faecium [9] | Escherichia coli | Staphylococcus aureus [10]

CC(C)=C[C@@H]1c2cccc3[nH]cc(c23)C[C@H]2C(=O)/C(=C(\C)O)C(=O)N12
≥ 64 µg/mL: [1] | Staphylococcus aureus [2] | Staphylococcus aureus [3] | Enterococcus faecium [4] | Enterococcus faecalis [5] | [6] | Staphylococcus aureus [7] | Enterococcus faecalis [8] | Enterococcus faecium [9] | Escherichia coli | Staphylococcus aureus [10]
